The molecules below were run against Plasminogen activator inhibitor 1 (Homo sapiens, UniProt P05121) (assay: ChEBML_222791).
Excerpt: Inhibitory activity against human plasminogen activator inhibitor-1 (PAI-1) evaluated by chromogenic assay.

Sequence of Plasminogen activator inhibitor 1 (P05121 whole entry): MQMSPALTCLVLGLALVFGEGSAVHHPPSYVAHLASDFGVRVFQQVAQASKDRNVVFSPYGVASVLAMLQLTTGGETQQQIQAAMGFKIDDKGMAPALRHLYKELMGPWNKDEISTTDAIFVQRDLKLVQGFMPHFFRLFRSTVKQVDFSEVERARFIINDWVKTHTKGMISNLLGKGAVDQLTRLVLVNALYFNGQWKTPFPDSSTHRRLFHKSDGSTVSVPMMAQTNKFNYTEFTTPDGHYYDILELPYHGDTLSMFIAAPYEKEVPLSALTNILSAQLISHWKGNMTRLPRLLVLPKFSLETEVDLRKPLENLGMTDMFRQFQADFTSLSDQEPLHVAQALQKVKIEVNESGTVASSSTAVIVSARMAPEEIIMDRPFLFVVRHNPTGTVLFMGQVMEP

SMILES | IC50
O=C(O)CCCCCCCOc1ccc(NC(=O)C2C(=O)CN(Cc3ccccc3)C2=O)cc1 (centres undefined) [8-{4-[(1-Benzyl-4-hydroxy-2-oxo-2,5-dihydro-1H-pyrrole-3-carbonyl)-amino]-phenoxy}-octanoic acid] | > 50 µM
COC(=O)CCCCCCCOc1ccc(NC(=O)C2C(=O)CN(c3ccc(Cl)cc3)C2=O)cc1 (centres undefined) [8-(4-{[1-(4-Chloro-phenyl)-4-hydroxy-2-oxo-2,5-dihydro-1H-pyrrole-3-carbonyl]-amino}-phenoxy)-octanoic acid methyl ester] | > 50 µM
O=C(O)CCCCCCCOc1ccc(NC(=O)C2C(=O)CN(c3ccc(N4CCOCC4)cc3)C2=O)cc1 (centres undefined) [8-(4-{[4-Hydroxy-1-(4-morpholin-4-yl-phenyl)-2-oxo-2,5-dihydro-1H-pyrrole-3-carbonyl]-amino}-phenoxy)-octanoic acid] | > 50 µM
CC(=O)Nc1ccc(N2CC(=O)C(C(=O)Nc3ccc(OCCCCCCCC(=O)O)cc3)C2=O)cc1 (centres undefined) [8-(4-{[1-(4-Acetylamino-phenyl)-4-hydroxy-2-oxo-2,5-dihydro-1H-pyrrole-3-carbonyl]-amino}-phenoxy)-octanoic acid] | > 50 µM
COc1ccccc1N1CC(=O)C(C(=O)Nc2ccc(OCCCCCCCC(=O)O)cc2)C1=O (centres undefined) [8-(4-{[4-Hydroxy-1-(2-methoxy-phenyl)-2-oxo-2,5-dihydro-1H-pyrrole-3-carbonyl]-amino}-phenoxy)-octanoic acid] | > 50 µM
O=C(O)CCCCCCCOc1ccc(NC(=O)C2C(=O)NC(Cc3ccc(O)cc3)C2=O)cc1 (centres undefined) [8-(4-{[4-Hydroxy-5-(4-hydroxy-benzyl)-2-oxo-2,5-dihydro-1H-pyrrole-3-carbonyl]-amino}-phenoxy)-octanoic acid] | > 50 µM

The remaining lines, values ahead:

IC50 | SMILES
> 50 µM | CC1C(=O)C(C(=O)Nc2ccc(OCCCCCCCC(=O)O)cc2)C(=O)N1c1ccccc1 (centres undefined) [8-{4-[(4-Hydroxy-5-methyl-2-oxo-1-phenyl-2,5-dihydro-1H-pyrrole-3-carbonyl)-amino]-phenoxy}-octanoic acid]
> 50 µM | O=C(O)CCCCCCCOc1ccc(NC(=O)C2C(=O)CN(c3cccc4ccccc34)C2=O)cc1 (centres undefined) [8-{4-[(4-Hydroxy-1-naphthalen-1-yl-2-oxo-2,5-dihydro-1H-pyrrole-3-carbonyl)-amino]-phenoxy}-octanoic acid]
> 50 µM | O=C(O)CCCCCCCOc1ccc(NC(=O)C2C(=O)CN(c3ccccc3Cl)C2=O)cc1 (centres undefined) [8-(4-{[1-(2-Chloro-phenyl)-4-hydroxy-2-oxo-2,5-dihydro-1H-pyrrole-3-carbonyl]-amino}-phenoxy)-octanoic acid]

From BindingDB's records for doi:10.1016/s0960-894x(02)00078-1 (Xenova, 2002)
